In article PMC12016531 (Applied and Environmental Microbiology, 2025):

Columns and labels:
[1] = tested on: L. monocytogenes ATCC19111; assay: Intracellular accumulation of UDP-MurNAc-pentapeptide; assay type: cell-based, Listeria monocytogenes; settings: mycoidesin 1× and 2× MIC, vancomycin 10× MIC; 60 min; chloramphenicol 130 µg/mL pre-incubation 15 min; HPLC, MS
Procedure: (§1) Bacillus cereus CMCC63301 and L. monocytogenes ATCC19111 were grown to an OD600 of 0.3 and incubated with chloramphenicol (130 µg/mL) for 15 min. Mycoidesin (1× and 2× MIC) and vancomycin (10× MIC; positive control) were added and incubated for 60 min. The cells were collected, added to boiling water, treated for 15 min, centrifuged, and the supernatant was lyophilized. The intracellular accumulation of the peptidoglycan precursor UDP-MurNAc-pentapeptide was analyzed using HPLC (Hypersil ODS column) and identified via mass spectrometry ([27]).

[2] = tested on: Bacillus cereus CMCC63301; assay: as above; assay type: cell-based; settings: mycoidesin 1× and 2× MIC, vancomycin 10× MIC; 60 min; chloramphenicol 130 µg/mL pre-incubation 15 min; HPLC, MS
Procedure: as §1

CN[C@H](CC(C)C)C(=O)N[C@H]1C(=O)N[C@@H](CC(N)=O)C(=O)N[C@H]2C(=O)N[C@H]3C(=O)N[C@H](C(=O)N[C@H](C(=O)O)c4cc(O)cc(O)c4-c4cc3ccc4O)[C@H](O)c3ccc(c(Cl)c3)Oc3cc2cc(c3O[C@@H]2O[C@H](CO)[C@@H](O)[C@H](O)[C@H]2O[C@H]2C[C@](C)(N)[C@H](O)[C@H](C)O2)Oc2ccc(cc2Cl)[C@H]1O [vancomycin, reference compound]
Intracellular accumulation of UDP-MurNAc-pentapeptide [1]: observed | Intracellular accumulation of UDP-MurNAc-pentapeptide [2]: observed
